This note sets out measurements from US20210025110A1, “ORGANIC ANTIMICROBIAL TEXTILE” (Livinguard AG, priority 2018, published 2021).

Where only a bound is given, the exact number is not on record here.

The test system of assay [1] is S. aureus ATCC 6538. Nature of the assay: AATCC 100-2012 antimicrobial performance of treated textile, S. aureus. Type of assay: cell-based, Staphylococcus aureus. The procedure: (§1) Antimicrobial performance of antimicrobial textiles according to the invention were performed following the AATCC 100-2012 test method. The AATCC 100-2012 test procedure for antimicrobial performance is described in detail in AATCC Technical Manual 2013, p. 166-168. Briefly, 3 circular swatches of 48 mm diameter were prepared from autoclaved (121° C., 15 min) textile samples, and a defined number of swatches was added to a 250 ml Erlenmeyer flask. 1 ml of prepared inoculum (in phosphate buffered water) was spot onto the swatches. […] The 0 minute contact time was immediately analyzed after inoculation. For the other contact times, the Erlenmeyer flask was sealed immediately after inoculation and incubated at 37° C. for the respective contact times. After the defined contact time, 100 ml of Dey-Engley Neutralizing broth was added to each flask, and the flask was shaken for one minute by hand. A dilution series was prepared and each dilution sample was plated on a nutrient agar. Agar plates were incubated at 37° C. for 24 and 48 hours. The Log Reduction (R) of bacteria was calculated by: B[log(number bacteria recovered from the inoculated treated test specimen swatches in the jar immediately after inoculation, i.e. at 0 contact time)]−A[log(number of bacteria recovered from the inoculated treated test specimen swatches in the jar incubated over the desired contact period)].

Assay [2] deals with P. aeruginosa ATCC 9027. Nature of the assay: AATCC 100-2012 antimicrobial performance of treated textile, P. aeruginosa. Type of assay: cell-based. The protocol:
as §1

Assay [3] concerns E. coli. Nature of the assay: AATCC 100-2012 antimicrobial performance of treated textile, E. coli. Type of assay: cell-based.

For the compound `N=C(N)NCCC[C@H](N)C(=O)O` [L-arginine], in assay [1] (Table 1, 100% viscose, L-arginine, 10 washes, 1 hour contact), the “Log Reduction (R) after 1 hour, S. aureus” value is reported as “about 1 Log cfu/ml”. The “reduction of S. aureus after 1 hour” value in assay [1] (Table 1 textiles, L-arginine on viscose, 1 hour) is listed as “about 90%”. Also, in assay [2] (Table 1, 100% viscose, L-arginine, 10 washes, 10 min contact), the “Log Reduction (R) after 10 min, P. aeruginosa” value was determined as 2.76 Log cfu/ml. Also, the “reduction of P. aeruginosa after 10 minutes” value in assay [2] (Table 1 textiles, L-arginine on viscose, 10 min) is over 99%. Also, the “reduction of E. coli after 24 hours” value in assay [3] (Table 10, L-arginine 12% on cotton) is on record as over 99.99%. Also, the “Log Reduction (R) after 24 hours against E. coli, wash cycle 0 (unwashed)” value in assay [3] (Table 10, 100% cotton, L-arginine 120 gpl, liquor pH per sample ID, unwashed, 24 hours) is recorded as over 4.41 Log cfu/ml.
Turning to `C[N+](C)(C)C[C@H](O)CC(=O)O` [L-carnitine], the “Log Reduction (R) after 30 min, P. aeruginosa” value in assay [2] (Table 2, 100% viscose, L-carnitine, 0 or 10 washes per sample ID, 30 min contact) came out at 2.82 Log cfu/ml. For the same compound, in assay [2] (Table 2 textiles, L-carnitine on viscose, 30 min), the “reduction of P. aeruginosa after 30 minutes” value is over 99%.
